Source: a melting point compilation (Tetko et al.; mined from patent text by program, amines drawn as free bases though some values may be those of a salt)
Starred links: 1 amine or outer side, 2 acyl side, 3 side chain; linkers in the order of their positions; H or OH if unused. Residues, ends and D or L forms follow the SMILES beside them. Suc = O=C(CCC(=O)[*:2])[*:1]

Row | Compound | melting point
1 | CCCc1nc2c(N)nc3ccccc3c2n1CCOCCCSC | 99 to 101 °C
2 | COc1cc2c(cc1C)CCN(C)C2C1(c2ccsc2)CC1 (centres undefined) | 103 to 105 °C
3 | Cc1cc(-c2nncc3c(-c4ccco4)c(OCc4ncnn4C)nn23)no1 | 226 to 228 °C
4 | Nc1nc2c(c3c1ncn3Cc1cc(-c3ccc(F)cc3)no1)NCCC2 | 227 to 228 °C
5 | O=c1n(-c2ccc(Cl)c(Cl)c2)c(=O)n(SC(Cl)(Cl)Cl)n1SC(Cl)(Cl)Cl | 167 °C
6 | CCNS(=O)(=O)c1ccc(C2=C(c3ccccc3)C(=O)C(C)(C)O2)cc1Cl | 72 to 73 °C
7 | CC1C[C@H]2[C@@H](O1)[C@H](N=[N+]=[N-])C(=O)N2Cc1ccccc1 (relative stereo) | 70 to 73 °C
8 | Cc1ccc(S(=O)(=O)N2[C@@H](CC(=N)NO)CC[C@H]2c2ccc(F)cc2)cc1 (racemic) | 84 °C
9 | CC(C)N1CCC(Oc2ccc3[nH]ncc3c2)CC1 | 125 to 126 °C
10 | O=c1ccc(-c2c(-c3ccccc3)nn3ccccc23)nn1C1=C(CCO)CCCC1 | 198 to 199 °C
11 | CN1CCN(c2ccc(Nc3ncc4c(Br)cc(-c5ccc(S(C)(=O)=O)cc5)n4n3)cc2)CC1 | 265 to 266 °C
12 | CCCC(=O)c1cnc2c(OC)cc(O)cc2c1Nc1ccc(O)cc1C | 251 to 253 °C
13 | N#Cc1ccc(C=O)c(SCc2ccccc2)c1 | 106 to 109 °C
14 | Brc1ccc(-c2ccncc2)cc1 | 123 to 124 °C
15 | Cc1c(-c2ccccc2)c(N2CC[C@](C)(N)C2)c2oc(C(=O)N(C)C)nc2c1C#N | 202 to 204 °C
16 | O=C1CCCN1c1cccc(-n2cnc3cc(Br)cnc32)c1 | 194 to 195 °C
17 | COc1cccc(-c2ccccc2)c1C(O)=S | 97 to 98 °C
18 | Cc1cc(N)c(C)c(/C=C/C(=O)O)c1 | 185 °C
19 | CCOc1ccc(C(=O)N2CCc3cc(S(=O)(=O)n4cc(-c5ccccc5)[nH]c4=O)ccc32)cc1 | 249 to 253 °C
20 | CC(C)(C)c1cc(C=C2NC(=O)NC2=O)cc(C(C)(C)C)c1O | 251 to 252 °C
21 | COC(=O)c1ccc([N+](=O)[O-])c(OC(C)C)c1 | 46 to 48 °C
22 | CC(C)[C@H](NC(=O)OCc1ccccc1)C(N)=O | 206 °C
23 | C[C@H]1C[C@@](O)(c2cccc(Sc3cc4c(cc3F)N(C)C(=O)CC4)c2)CCO1 | 90 to 92 °C
24 | COC(=O)COc1ccc(C(=O)CBr)cc1OC | 105 to 107 °C
25 | C=COCCN1C(=O)N(CN2C(=O)N(CCOC=C)C(=O)C2(C)C)C(C)(C)C1=O | 90 to 92 °C

Row | Compound | melting point
26 | CCOC(=O)c1c(S(C)(=O)=O)nc2sccn12 | 158 to 161 °C
27 | O=C(Nc1ccc2[nH]c(=O)oc2c1)C(=O)N1CCC(Cc2cccc(F)c2)CC1 | 215 to 217 °C
28 | CCC1CC(=Cc2ccccc2Cl)C(=O)O1 (centres undefined) | 38 to 39 °C
29 | COc1cc2c(cc1OCc1ccccc1)CCN(Cc1cccnc1)C2 | 78 to 79 °C
30 | CCOc1cc2c(Nc3ccc(OC)cc3)c(C(=O)O)cnc2nc1C | 259 to 263 °C
31 | O=[N+]([O-])c1ccc(S(=O)(=O)CCO)cc1O | 140 to 142 °C
32 | COc1cc2ncc(F)c(Cl)c2cc1OC | 159 to 160 °C
33 | Cn1cc(-c2cncc(OC3SCC(O)C(O)C3O)c2)cn1 (centres undefined) | 216 °C
34 | CC(c1oc2ccc(F)cc2c(=O)c1-c1cccc(F)c1)n1cnc2c(N)ncnc21 (centres undefined) | 252 to 255 °C
35 | Nc1ccc(N2CCN(C(C(=O)NCC(F)(F)F)c3ccccc3)CC2)cc1 (centres undefined) | 136 °C
36 | O=c1cc(-c2ccccc2)oc2ncccc12 | 103 to 105 °C
37 | COC(=O)C(Cc1ccc(Cl)cc1Cl)=NO | 97 to 100 °C
38 | Cc1nc2c3c(c(C(=O)NCC(C)O)cc2n1C)CCC1(Cc2ccccc2C1)N3 (centres undefined) | 224 to 225 °C
39 | CCCN(CCC)C(=O)CN(C(=O)CNC(=O)Nc1cccc(C)c1)c1ccccc1 | 182 °C
40 | Oc1ccc2c(c1)nc(NC1CCN(CCNc3ncccn3)CC1)n2Cc1ccc(F)cc1 | 194 °C
41 | COc1ccc2c(c1)c1c(n2CCc2noc(-c3ccccc3)n2)CCN(C)C1 | 77.5 to 79 °C
42 | CC(C)CC(C)c1cc(C(C(F)(F)F)C(F)(F)F)ccc1NC(=O)c1c(C(F)(F)F)nn(C)c1Cl (centres undefined) | 102 to 104 °C
43 | CCN(CC)CC(=O)Nc1ccc2c(c1)C(=O)c1cc(NC(=O)CN(CC)CC)ccc1C2=O | 241 °C
44 | CCCCCN(CCC12CC3CC(CC(C3)C1)C2)C(=O)NCCCc1cccnc1 | 99.9 to 105 °C
45 | [O-][N+]1=C(c2ccccc2Cl)c2cc(Cl)ccc2C=CC1 | 196 to 197 °C
46 | O=C(NNc1ccc(Cl)cc1)c1cnc2ccc(I)cc2c1O | 250 to 252 °C
47 | COC(=O)c1cscc1NC(=O)COc1ccc(I)cc1 | 135 to 137 °C
48 | COc1cc(C2c3cc4c(cc3C(NC3=C(C)C(=O)N(C)C3=O)C3COC(=O)C23)OCO4)cc(OC)c1O (centres undefined) | 172 to 176 °C
49 | Cc1ccc(NC(=O)CN2C(=O)C3(COc4cc5c(cc43)CCO5)c3ccccc32)c(C)c1 (centres undefined) | 277 to 279 °C
50 | CCOC(=O)c1cn(-c2ccc(F)c(NC(=O)OC(C)(C)C)c2F)c2nc(Cl)c(F)cc2c1=O | 128 to 131 °C

Row | Compound | melting point
51 | CCNC(=O)C1CCCN1C(=O)C(C)NC(=O)C(C)NC(=O)CCC(=O)O (stereo not drawn) (Suc-Ala-Ala-Pro-NHEt; configuration not given here) | 185 to 186 °C
52 | COc1ccc(-c2nc(C(=O)O)cc(Cl)c2Cl)cc1 | 164 to 181 °C
53 | CCCCCCCc1ccc(C(=O)Nc2ccc(C(=O)NN=C3C(=O)Nc4ccc(I)cc43)cc2)cc1 | 306 °C
54 | O=C(NC(=O)c1ccccc1Cl)Nc1ccc(-n2cccc2)c(Cl)c1 | 169 to 170 °C
55 | COc1ccc2c(c1)CCC1=C2CCC2(C)C(=O)CCC12 (centres undefined) | 110 to 120 °C
56 | N#Cc1ccc(C(=O)Cl)c(CCl)c1 | 44 to 44.5 °C
57 | CC(=O)Nc1ccc2c(c1)C(=O)NC2=O | > 250 °C
58 | CC1(C)C(C#CC(=O)OCC(Cl)(Cl)Cl)C1C(=O)OC(C#N)c1cccc(Oc2ccccc2)c1 (centres undefined) | 101 °C
59 | CC(C)(C)OC(=O)N1CCC(n2cc(-c3ccc(Oc4ccccc4)cc3)c3c(N)ncnc32)C1 (centres undefined) | 168 to 170 °C
60 | CC1=C(C(=O)OCCC#N)C(c2cccc([N+](=O)[O-])c2)C(C(=O)OCCCN2CCC(c3ccccc3)(c3ccccc3)CC2)=C(C)N1 (centres undefined) | 158 to 160 °C
61 | COc1cc2c(c(Cl)c1Cl)C(=O)C(C)(C)C2 | 142 °C
62 | Cn1cc(-c2ccc(Cl)cc2)c(=S)c(-c2cccc(C(F)(F)F)c2)c1 | 239 to 242 °C
63 | COc1ccc(CN(C)CCc2ccc(NC(=O)c3cccc4c(=O)c5cccc(C)c5[nH]c34)cc2)cc1OC | 119 °C
64 | NC(=O)c1cc(C(F)(F)F)cc(F)c1F | 128 to 130 °C
65 | FC(F)(F)c1cc(Cl)c(Oc2ccc3ccc(S)cc3c2)c(Cl)c1 | 98 °C
66 | Nc1ccc2c(=O)n3c(nc2c1)C(=Cc1ccccc1Cl)CC3 | 275 to 280 °C
67 | C=C(C)c1cc(S(=O)(=O)c2ccc(N)cc2)cc(N2CCCC2)n1 | 200 to 201 °C
68 | CCP(=O)(CC)Cc1ccccc1O | 127 °C
69 | CC1Oc2cc(Cl)ccc2/C1=N\NC(=O)Nc1ccc(C(F)(F)F)cc1 (centres undefined) | 205 to 207 °C
70 | Cc1c(NC(=O)c2ccc(OCc3ccccc3)cc2)ccc2cc(CN3CCCC3)cnc12 | 177 to 178 °C
71 | CS(=O)(=O)NC(=O)c1cccc(-c2ccc(Cl)c(C(=O)NCC34CC5CC(CC(C5)C3)C4)c2)n1 | 160 to 162 °C
72 | CC(C)(C)NC(=O)C1CCC(c2ccccc2)N1C(=O)CNC(=O)OC(C)(C)C (centres undefined) | 117 °C
73 | Cc1ccc2c(=O)nc(-c3ccccn3)sc2c1 | 225 °C
74 | CCCN1Cc2c(Cl)nc(Cl)nc2N1 | 80 to 84 °C
75 | C[Si](C)(C)c1cccc2c1S(=O)c1c(cccc1[Si](C)(C)C)S2 | 210 to 211 °C

Row | Compound | melting point
76 | CC(C)(C)OC(=O)N1CCn2c(c(C(N)=O)c(C#N)c2C2CCN(S(C)(=O)=O)CC2)C1 | 220 °C
77 | O=C(c1ccc(Cl)c(Cl)c1)N1CCCC(c2cc(Br)cc(Br)c2)=N1 | 179 to 182 °C
78 | CCCCCCNC(=O)OC1CCN(C(=O)Oc2ccc(Oc3ccc(C)cc3)cc2)CC1 | 84 to 85 °C
79 | COc1ccc(C2=NN(C3CCN(S(=O)(=O)c4ccccc4F)CC3)C(=O)CC2)cc1OC | 198 to 199 °C
80 | Clc1nc2ccccc2c2occc12 | 120 to 122 °C
81 | N#Cc1ccc(CCC(O)C2CC2)cc1 (centres undefined) | 70 to 71 °C
82 | Cc1cnc(C(N)=O)cn1 | 204 to 206 °C
83 | CCOC(=O)c1nnc2ccc(NC3=CC(=O)CC(C)(C)C3)cc2c1O | 274 °C
84 | CC1(C)CC(=O)c2cc[nH]c2C1 | 177 to 178 °C
85 | O=C(O)C(Cc1cnc2cc(OCc3ccc(Cl)cc3)ccc2c1)Sc1ccccc1 (centres undefined) | 157 to 158 °C
86 | CCOc1cc(C(CC(=O)O)N2Cc3cccc(NC(C)=O)c3C2=O)ccc1OC(F)F (centres undefined) | 105 to 107 °C
87 | CC(NO)c1ccc2c(c1)Sc1cc(Cl)ccc1O2 (centres undefined) | 103 to 105 °C
88 | ON=Cc1cc2c(cn1)[nH]c1ccccc12 | 157 to 159 °C
89 | CCCCc1nc2cc(C(=O)OC)ccc2[nH]1 | 108 to 110 °C
90 | Cc1nn(-c2ccsc2)c(=O)cc1-c1ccc(OC2CCN(C3CCC3)CC2)cc1 | 277 to 279 °C
91 | CC(C)(C)NC(=O)N(C(=O)C1CCC2C3CC=C4C=C(C(=O)O)CCC4(C)C3CCC12C)C(C)(C)C (centres undefined) | 118 to 120 °C
92 | Cc1nccc(CO)c1OCc1ccccc1 | 130 to 131 °C
93 | COc1cc2c(cc1C(=O)O)OCO2 | 151 °C
94 | Cc1cc(C(=O)O)ccc1N1CCOCC1 | 220 to 221 °C
95 | NS(=O)(=O)c1cccc(S(=O)(=O)NC2CC2)c1 | 170 to 174 °C
96 | COc1ccc2c(C#N)c(-c3ncc(S(=O)(=O)NC(CF)CF)cn3)n(C3CCC3)c2n1 | 229 to 230 °C
97 | Fc1ccccc1-c1cccc2[nH]c3c(c12)CCN(Cc1ccccc1)CC3 | 157 to 159 °C
98 | CC(O)c1cc2c(c(Cl)n1)OCC2C (centres undefined) | 67 to 68 °C
99 | COC(=O)c1ccc(OC)nc1SCc1ccccc1 | 67 to 71 °C
